Measured values reported in publication PMC8429728, “TNK1 is a ubiquitin-binding and 14-3-3-regulated kinase that can be targeted to block tumor growth” (Nature Communications, 2021).
Where two headings read alike, the source gives them in different places.

Key:
Test in all cases: biochemical
Set-up in all cases: Reaction Biology 371-kinase panel at Km ATP, per cent enzyme activity relative to DMSO, single dose in duplicate
BTK = BTK (Homo sapiens, UniProt Q06187); settings: duplicate measurements, Km ATP
Outline: (§1)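 Activity of each kinase, normalised to DMSO-treated controls, served as the read-out. The inhibitor was tested at 300 nM against 371 kinases in vitro. Curves fitted by variable-slope sigmoidal dose-response, constrained to a bottom of 0, gave IC50.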

CAMK1d = CAMK1d (Homo sapiens, UniProt Q8IU85); settings: duplicate measurements, Km ATP
Outline: as §1

CAMK2g = CAMK2g (Homo sapiens, UniProt Q13555); settings: duplicate measurements, Km ATP
CAMK2g, sequence (Q13555 whole entry): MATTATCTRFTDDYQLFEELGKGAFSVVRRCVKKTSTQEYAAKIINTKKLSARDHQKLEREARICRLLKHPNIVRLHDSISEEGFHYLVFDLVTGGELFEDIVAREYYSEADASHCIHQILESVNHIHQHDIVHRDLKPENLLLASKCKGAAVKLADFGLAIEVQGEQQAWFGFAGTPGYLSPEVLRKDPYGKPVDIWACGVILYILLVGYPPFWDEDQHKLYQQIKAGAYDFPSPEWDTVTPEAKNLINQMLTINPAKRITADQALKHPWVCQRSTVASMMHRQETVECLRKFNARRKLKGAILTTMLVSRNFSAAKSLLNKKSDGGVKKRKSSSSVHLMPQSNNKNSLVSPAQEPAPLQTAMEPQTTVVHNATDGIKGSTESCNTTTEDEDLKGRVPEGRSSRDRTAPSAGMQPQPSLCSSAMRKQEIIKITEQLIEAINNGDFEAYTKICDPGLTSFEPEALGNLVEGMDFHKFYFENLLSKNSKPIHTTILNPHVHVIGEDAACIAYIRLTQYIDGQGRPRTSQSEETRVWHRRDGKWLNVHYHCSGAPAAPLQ
Outline: as §1

CDK19/cyclin C = CDK19/cyclin C (Homo sapiens, UniProt Q9BWU1); settings: duplicate measurements, Km ATP
Outline: as §1

CDK2/CYCLIN E = CDK2/CYCLIN E (Homo sapiens, UniProt P24941); settings: duplicate measurements, Km ATP
Outline: as §1

CDK6/cyclin D3 = CDK6/cyclin D3 (Homo sapiens, UniProt Q00534); settings: duplicate measurements, Km ATP
Outline: as §1

EGFR = EGFR (Homo sapiens, UniProt P00533); settings: duplicate measurements, Km ATP
EGFR, sequence (P00533 whole entry): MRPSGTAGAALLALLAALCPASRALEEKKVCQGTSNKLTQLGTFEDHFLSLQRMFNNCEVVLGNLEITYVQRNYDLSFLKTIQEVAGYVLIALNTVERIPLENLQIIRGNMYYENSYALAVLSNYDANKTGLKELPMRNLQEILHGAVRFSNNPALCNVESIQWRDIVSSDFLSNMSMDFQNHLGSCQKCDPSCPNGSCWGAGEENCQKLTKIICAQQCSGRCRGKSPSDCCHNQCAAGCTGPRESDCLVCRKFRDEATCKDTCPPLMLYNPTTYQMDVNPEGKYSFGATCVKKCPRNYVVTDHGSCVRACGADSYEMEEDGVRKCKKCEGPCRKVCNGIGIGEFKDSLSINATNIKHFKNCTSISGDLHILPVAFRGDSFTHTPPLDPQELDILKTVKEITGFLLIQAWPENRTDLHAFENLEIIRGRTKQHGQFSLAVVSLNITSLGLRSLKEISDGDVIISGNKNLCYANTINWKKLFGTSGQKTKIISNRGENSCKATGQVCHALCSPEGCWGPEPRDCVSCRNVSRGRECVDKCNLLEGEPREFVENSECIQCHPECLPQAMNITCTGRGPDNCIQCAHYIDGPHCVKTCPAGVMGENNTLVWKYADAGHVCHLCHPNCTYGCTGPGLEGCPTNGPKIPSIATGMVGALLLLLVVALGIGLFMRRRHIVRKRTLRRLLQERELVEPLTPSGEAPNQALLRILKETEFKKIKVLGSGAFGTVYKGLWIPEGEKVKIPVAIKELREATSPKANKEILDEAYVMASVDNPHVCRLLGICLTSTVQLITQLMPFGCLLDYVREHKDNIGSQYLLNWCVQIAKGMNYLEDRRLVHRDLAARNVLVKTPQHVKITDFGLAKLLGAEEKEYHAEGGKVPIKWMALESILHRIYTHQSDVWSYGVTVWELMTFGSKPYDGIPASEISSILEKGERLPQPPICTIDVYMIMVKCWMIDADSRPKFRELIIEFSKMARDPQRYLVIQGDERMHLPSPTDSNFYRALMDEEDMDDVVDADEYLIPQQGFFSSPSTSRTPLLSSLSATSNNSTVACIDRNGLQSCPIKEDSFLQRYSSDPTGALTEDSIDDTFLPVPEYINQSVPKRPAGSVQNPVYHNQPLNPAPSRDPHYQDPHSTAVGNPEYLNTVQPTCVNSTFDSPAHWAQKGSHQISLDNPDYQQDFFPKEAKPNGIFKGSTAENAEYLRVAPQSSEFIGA
Outline: as §1

EPHA1 = EPHA1 (Homo sapiens, UniProt P21709); settings: duplicate measurements, Km ATP
EPHA1, sequence (P21709 whole entry): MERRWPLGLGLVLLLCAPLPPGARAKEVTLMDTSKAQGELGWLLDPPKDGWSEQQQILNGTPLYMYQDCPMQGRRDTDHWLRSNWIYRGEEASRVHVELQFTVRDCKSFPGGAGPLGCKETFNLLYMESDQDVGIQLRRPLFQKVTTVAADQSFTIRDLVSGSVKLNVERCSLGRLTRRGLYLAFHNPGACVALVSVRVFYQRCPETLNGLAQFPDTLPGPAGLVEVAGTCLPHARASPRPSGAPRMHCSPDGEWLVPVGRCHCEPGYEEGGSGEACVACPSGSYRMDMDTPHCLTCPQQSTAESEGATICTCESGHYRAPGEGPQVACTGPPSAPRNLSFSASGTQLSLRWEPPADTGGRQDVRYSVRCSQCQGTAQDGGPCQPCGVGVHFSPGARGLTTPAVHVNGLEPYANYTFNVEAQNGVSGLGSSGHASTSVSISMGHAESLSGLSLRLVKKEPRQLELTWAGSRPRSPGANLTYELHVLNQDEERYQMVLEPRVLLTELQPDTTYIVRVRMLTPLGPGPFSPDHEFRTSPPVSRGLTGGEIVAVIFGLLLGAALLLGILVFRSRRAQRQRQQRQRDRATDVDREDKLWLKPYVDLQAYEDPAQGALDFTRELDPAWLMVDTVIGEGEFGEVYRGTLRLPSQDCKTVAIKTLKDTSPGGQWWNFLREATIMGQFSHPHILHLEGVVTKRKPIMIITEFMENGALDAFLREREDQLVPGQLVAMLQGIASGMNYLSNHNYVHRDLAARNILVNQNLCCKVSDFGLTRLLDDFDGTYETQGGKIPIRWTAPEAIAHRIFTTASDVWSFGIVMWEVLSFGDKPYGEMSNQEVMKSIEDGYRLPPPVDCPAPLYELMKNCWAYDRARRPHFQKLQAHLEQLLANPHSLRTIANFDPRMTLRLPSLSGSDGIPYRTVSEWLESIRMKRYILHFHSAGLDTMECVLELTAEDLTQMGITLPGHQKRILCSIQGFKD
Outline: as §1

GCK/MAP4K2 = GCK/MAP4K2 (Homo sapiens, UniProt Q12851); settings: duplicate measurements, Km ATP
Outline: as §1

GSK3b = GSK3b (Homo sapiens, UniProt P49841); settings: duplicate measurements, Km ATP
Outline: as §1

HPK1/MAP4K1 = HPK1/MAP4K1 (Homo sapiens, UniProt Q92918); settings: duplicate measurements, Km ATP
HPK1/MAP4K1, sequence (Q92918 whole entry): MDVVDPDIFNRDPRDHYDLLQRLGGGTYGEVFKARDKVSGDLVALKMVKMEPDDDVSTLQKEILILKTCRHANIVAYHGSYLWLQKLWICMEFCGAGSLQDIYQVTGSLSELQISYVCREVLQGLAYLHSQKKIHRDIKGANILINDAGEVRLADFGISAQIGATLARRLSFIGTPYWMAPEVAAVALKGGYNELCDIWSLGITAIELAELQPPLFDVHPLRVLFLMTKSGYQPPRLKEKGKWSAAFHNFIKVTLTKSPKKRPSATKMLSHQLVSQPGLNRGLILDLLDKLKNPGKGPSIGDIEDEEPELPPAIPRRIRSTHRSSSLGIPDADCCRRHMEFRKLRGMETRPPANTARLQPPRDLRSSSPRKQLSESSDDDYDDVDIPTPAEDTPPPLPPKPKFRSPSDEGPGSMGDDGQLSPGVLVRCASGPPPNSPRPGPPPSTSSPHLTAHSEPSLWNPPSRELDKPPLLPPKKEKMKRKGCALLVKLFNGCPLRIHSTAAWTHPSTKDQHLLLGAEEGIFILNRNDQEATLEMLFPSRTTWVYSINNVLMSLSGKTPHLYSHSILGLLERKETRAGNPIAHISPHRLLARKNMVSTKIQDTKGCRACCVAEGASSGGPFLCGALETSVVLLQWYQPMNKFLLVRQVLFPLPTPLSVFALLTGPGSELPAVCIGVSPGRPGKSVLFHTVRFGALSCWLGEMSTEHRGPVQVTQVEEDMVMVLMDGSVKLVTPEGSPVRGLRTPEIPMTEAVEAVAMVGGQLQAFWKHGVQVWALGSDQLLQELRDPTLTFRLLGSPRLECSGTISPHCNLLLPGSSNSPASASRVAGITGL
Outline: as §1

IR = target: T1, IR (Homo sapiens, UniProt P06213); settings: duplicate measurements, Km ATP
T1 construct: gene INSR
Outline: as §1

ITK = ITK (Homo sapiens, UniProt Q08881); settings: duplicate measurements, Km ATP
ITK, sequence (Q08881 whole entry): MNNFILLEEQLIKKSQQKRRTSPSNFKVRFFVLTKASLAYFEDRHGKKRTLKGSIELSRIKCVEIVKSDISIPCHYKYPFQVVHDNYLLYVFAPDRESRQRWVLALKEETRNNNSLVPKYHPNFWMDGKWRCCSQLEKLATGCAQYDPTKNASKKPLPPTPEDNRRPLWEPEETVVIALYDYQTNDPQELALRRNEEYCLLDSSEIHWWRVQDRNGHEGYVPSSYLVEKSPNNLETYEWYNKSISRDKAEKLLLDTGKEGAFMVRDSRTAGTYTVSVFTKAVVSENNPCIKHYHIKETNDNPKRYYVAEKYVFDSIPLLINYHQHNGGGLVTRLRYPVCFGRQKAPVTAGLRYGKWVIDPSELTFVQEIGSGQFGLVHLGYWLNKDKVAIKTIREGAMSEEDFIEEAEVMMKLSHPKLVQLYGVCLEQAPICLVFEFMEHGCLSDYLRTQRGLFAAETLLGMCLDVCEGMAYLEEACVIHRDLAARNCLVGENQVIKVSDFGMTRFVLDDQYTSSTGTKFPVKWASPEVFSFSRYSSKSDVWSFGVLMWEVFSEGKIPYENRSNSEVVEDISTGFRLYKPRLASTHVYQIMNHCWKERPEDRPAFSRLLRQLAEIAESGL
Outline: as §1

MAPKAPK3 = MAPKAPK3 (Homo sapiens, UniProt Q16644); settings: duplicate measurements, Km ATP
Outline: as §1

MEK2 = target: T2, MEK2 (Homo sapiens, UniProt P36507); settings: duplicate measurements, Km ATP
T2 construct: gene MAP2K2
Outline: as §1

MNK2 = target: T3, MNK2 (Homo sapiens, UniProt Q9HBH9); settings: duplicate measurements, Km ATP
T3 construct: gene MKNK2
Outline: as §1

NEK4 = NEK4 (Homo sapiens, UniProt P51957); settings: duplicate measurements, Km ATP; read-out: % Enzyme Activity (relative to DMSO controls) / TP-0005801 (0.3µM) / Data 1
Outline: as §1

PAK1 = PAK1 (Homo sapiens, UniProt Q13153); settings: duplicate measurements, Km ATP
Outline: as §1

TBK1 = TBK1 (Homo sapiens, UniProt Q9UHD2); settings: duplicate measurements, Km ATP
TBK1, sequence (Q9UHD2 whole entry): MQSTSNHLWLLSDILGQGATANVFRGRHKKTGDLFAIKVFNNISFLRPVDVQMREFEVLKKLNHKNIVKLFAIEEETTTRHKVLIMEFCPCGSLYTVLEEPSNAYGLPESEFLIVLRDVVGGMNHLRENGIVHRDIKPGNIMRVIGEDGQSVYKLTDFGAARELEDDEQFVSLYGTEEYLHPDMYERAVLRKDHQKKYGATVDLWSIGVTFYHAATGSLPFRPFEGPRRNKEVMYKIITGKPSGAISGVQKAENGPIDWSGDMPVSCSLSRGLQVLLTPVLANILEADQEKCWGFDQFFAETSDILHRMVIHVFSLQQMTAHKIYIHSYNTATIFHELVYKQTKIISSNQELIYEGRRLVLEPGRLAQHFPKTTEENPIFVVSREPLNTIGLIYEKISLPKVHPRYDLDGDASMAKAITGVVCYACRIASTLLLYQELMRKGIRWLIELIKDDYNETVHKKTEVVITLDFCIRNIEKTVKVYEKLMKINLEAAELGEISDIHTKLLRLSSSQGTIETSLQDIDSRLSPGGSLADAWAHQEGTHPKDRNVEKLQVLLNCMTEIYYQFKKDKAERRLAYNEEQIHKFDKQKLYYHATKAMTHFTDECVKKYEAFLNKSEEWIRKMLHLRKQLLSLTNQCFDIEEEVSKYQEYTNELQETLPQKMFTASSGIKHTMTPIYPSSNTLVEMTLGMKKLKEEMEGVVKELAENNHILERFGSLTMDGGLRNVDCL
Outline: as §1

TNIK = TNIK (Homo sapiens, UniProt Q9UKE5); settings: duplicate measurements, Km ATP
Outline: as §1

[1] = read-out: % Enzyme Activity (relative to DMSO controls) / TP-0005801 (0.3µM) / Data 1
[2] = read-out: % Enzyme Activity (relative to DMSO controls) / TP-0005801 (0.3µM) / Data 2

remaining activity at 0.3 µM (BTK; [1]): 93.6%
remaining activity at 0.3 µM (BTK; [2]): 92.1%
remaining activity at 0.3 µM (CAMK1d; [1]): 75.7%
remaining activity at 0.3 µM (CAMK1d; [2]): 73.7%
remaining activity at 0.3 µM (CAMK2g; [1]): 157%
remaining activity at 0.3 µM (CAMK2g; [2]): 153%
remaining activity at 0.3 µM (CDK19/cyclin C; [1]): 54.8%
remaining activity at 0.3 µM (CDK19/cyclin C; [2]): 54.1%
remaining activity at 0.3 µM (CDK2/CYCLIN E; [1]): 91.7%
remaining activity at 0.3 µM (CDK2/CYCLIN E; [2]): 91.2%
remaining activity at 0.3 µM (CDK6/cyclin D3; [1]): 103%
remaining activity at 0.3 µM (CDK6/cyclin D3; [2]): 101%
remaining activity at 0.3 µM (EGFR; [1]): 97.2%
remaining activity at 0.3 µM (EGFR; [2]): 96%
remaining activity at 0.3 µM (EPHA1; [1]): 96.8%
remaining activity at 0.3 µM (EPHA1; [2]): 96.5%
remaining activity at 0.3 µM (GCK/MAP4K2; [1]): 76.1%
remaining activity at 0.3 µM (GCK/MAP4K2; [2]): 73.9%
remaining activity at 0.3 µM (GSK3b; [1]): 96.4%
remaining activity at 0.3 µM (GSK3b; [2]): 95.7%
remaining activity at 0.3 µM (HPK1/MAP4K1; [1]): 25.8%
remaining activity at 0.3 µM (HPK1/MAP4K1; [2]): 25.6%
remaining activity at 0.3 µM (IR; [1]): 3%
remaining activity at 0.3 µM (IR; [2]): 2.81%
remaining activity at 0.3 µM (ITK; [1]): 107%
remaining activity at 0.3 µM (ITK; [2]): 103%
remaining activity at 0.3 µM (MAPKAPK3; [1]): 104%
remaining activity at 0.3 µM (MAPKAPK3; [2]): 103%
remaining activity at 0.3 µM (MEK2; [1]): 87.6%
remaining activity at 0.3 µM (MEK2; [2]): 87.4%
remaining activity at 0.3 µM (MNK2; [1]): 89.8%
remaining activity at 0.3 µM (MNK2; [2]): 89%
remaining activity at 0.3 µM (NEK4): 122%
remaining activity at 0.3 µM (PAK1; [1]): 91.5%
remaining activity at 0.3 µM (PAK1; [2]): 86.4%
remaining activity at 0.3 µM (TBK1; [1]): 97.8%
remaining activity at 0.3 µM (TBK1; [2]): 96.4%
remaining activity at 0.3 µM (TNIK; [1]): 49.6%
remaining activity at 0.3 µM (TNIK; [2]): 48.7%
Structure (SMILES): COc1cc(N2CCN(C)CC2)c(C)cc1Nc1ncc(Br)c(Nc2cccnc2N(C)C)n1 [TP-5801]
